{"source": "patent US10434079B2", "about": "“Compositions and methods for the treatment of fatty acid metabolism disorders” (The Children's Hospital of Philadelphia, priority 2013, dated 2019)", "test_system": "β-oxidation of fatty acids", "test": "Measurement of β-oxidation: 3H-labeled palmitoyl-CoA oxidation in liver homogenates of treated ob/ob mice", "assay_type": "in vivo, mouse", "settings": "GSNO-injected ob/ob mice (i.p.)", "procedure": "(1957) J. Biol. Chem., 226:497-509). The aqueous phase was collected, and proteins were precipitated by the addition of 10% TCA followed by centrifugation at 8000 g for 10 minutes at room temperature. Remaining radioactive palmitoyl-CoA was eliminated by strong anion exchange chromatography with AG 1-X8 formate resin (Life Science). The effluent containing the ^3H2O was collected and used for scintillation counting. Each experiment was coupled with a background measurement, a sample containing no protein. The background count number was subtracted from each measurement corresponding to analysis samples. Leptin-deficient mice develop liver steatosis spontaneously under normal chow diet starting at 4 to 5 weeks of life that is characterized by a diminished rate of palmitate oxidation and accumulation of fat droplets in the form of triglycerides within the hepatocytes (Brix et al. (2002) Mol. Genet. Metab., 75:219-226; de Oliveira et al. (2008) J. Am. Coll. Nutr., 27:299-305). […] This significant reduction in the rate of palmitoyl-CoA oxidation indicated a deficiency in mitochondrial β-oxidation of fatty acids. […]", "data": [{"smiles": "N[C@@H](CCC(=O)N[C@@H](CSN=O)C(=O)NCC(=O)O)C(=O)O", "note": "[GSNO, S-nitrosoglutathione]", "values": [{"measurement": "palmitoyl-CoA oxidation rate compared with PBS-injected ob/ob mice", "value": "significantly increased rate"}]}]}
